Reference: patent US9714231B2, “Pyrrolidine GPR40 modulators” (BRISTOL-MYERS SQUIBB COMPANY, priority 2012, dated 2017)
Where a name gives a salt, the structure may show the parent alone. Read-outs that look alike come from different tables or passages of the source.

Tests used:
human GPR40 [1] = target: T1, human GPR40 (Homo sapiens, UniProt O14842)
human GPR40 [2] = target: T1, human GPR40; test: FDSS-based intracellular calcium assay (Human GRP40 in vitro assay); type: cell-based; design: 3xFLAG; expressed in transfected cells; conditions: cells expressing GPR40, intracellular Ca2+ response, FDSS reader; read-out: hGPR40 EC50
Outline: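 GPR40-expressing cells, plated overnight in serum-free phenol red-free DMEM, loaded with Fluo-3 in HBSS with 1.7 mM probenecid for 30 min at 37° C. Compounds in DMSO, diluted in assay buffer, added as 3× solutions; intracellular Ca^2+ response read on FDSS.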

T1 sequence (O14842 whole entry): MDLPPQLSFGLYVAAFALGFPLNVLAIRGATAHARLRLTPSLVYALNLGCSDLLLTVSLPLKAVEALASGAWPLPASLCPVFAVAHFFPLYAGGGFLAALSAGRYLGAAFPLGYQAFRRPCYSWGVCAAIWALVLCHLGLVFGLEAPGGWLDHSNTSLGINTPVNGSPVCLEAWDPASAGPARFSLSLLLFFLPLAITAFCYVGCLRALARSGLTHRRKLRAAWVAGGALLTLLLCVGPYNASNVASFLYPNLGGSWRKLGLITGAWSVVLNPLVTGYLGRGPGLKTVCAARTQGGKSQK

Row | EC50 (human GPR40 [1]) | EC50 (human GPR40 [2]) | Compound
1 | 520 nM | 840 nM | COc1cc(N2CCC(Oc3ccc(N4C[C@H](OC)C[C@@H]4CC(=O)O)cc3)CC2)c(F)cn1 [Example 96, 2-((2R,4R)-1-(4-((1-(5-Fluoro-2-methoxypyridin-4-yl)piperidin-4-yl)oxy)phenyl)-4-methoxypyrrolidin-2-yl)acetic acid, diethylammonium salt]
2 | 100 nM | 102 nM | COc1cc(N2CCC(Oc3ccc(N4C[C@H](OC)[C@@H](C)[C@@H]4CC(=O)O)cc3F)C(C)C2)c(Cl)cn1 (stereo partly drawn) [Example 98, 2-((2S,3S,4R)-1-(4-(((3,4-trans)-1-(5-Chloro-2-methoxypyridin-4-yl)-3-methylpiperidin-4-yl)oxy)-3-fluorophenyl)-4-methoxy-3-methylpyrrolidin-2-yl)acetic acid]
3 | 290 nM | 289 nM | COc1cc(N2CCC(Oc3ccc(N4C[C@H](OC)[C@@H](C)[C@@H]4CC(=O)O)cc3F)CC2)c(Cl)cn1 [Example 99, 2-((2S,3S,4R)-1-(4-((1-(5-Chloro-2-methoxypyridin-4-yl)piperidin-4-yl)oxy)-3-fluorophenyl)-4-methoxy-3-methylpyrrolidin-2-yl)acetic acid]
4 | 950 nM | 952 nM | COc1cc(N2CCC(Cc3ccc(N4C[C@H](OC)C[C@@H]4CC(=O)O)cc3)CC2)c(Cl)cn1 [Example 102, 2-((2R,4R)-1-(4-((1-(5-Chloro-2-methoxypyridin-4-yl)piperidin-4-yl)methyl)phenyl)-4-methoxypyrrolidin-2-yl)acetic acid]
5 | 1600 nM | 1620 nM | COc1cc(N2CCC(Oc3ccc(N4C[C@H](O)[C@@H](C)[C@@H]4CC(=O)O)c(F)c3)C(C)C2)c(Cl)cn1 (stereo partly drawn) [Example 115, 2-((2S,3S,4R)-1-(4-(((3,4-trans)-1-(5-Chloro-2-methoxypyridin-4-yl)-3-methylpiperidin-4-yl)oxy)-2-fluorophenyl)-4-hydroxy-3-methylpyrrolidin-2-yl)acetic acid]
6 | 14 nM | 140 nM | CCOc1ccc(F)c(N2CCC(Oc3ccc(N4C[C@H](OC)[C@@H](C)[C@@H]4CC(=O)O)cn3)C(C)C2)c1 (stereo partly drawn) [Example 117, 2-((2S,3S,4R)-1-(6-(((3,4-trans)-1-(5-Ethoxy-2-fluorophenyl)-3-methylpiperidin-4-yl)oxy)pyridin-3-yl)-4-methoxy-3-methylpyrrolidin-2-yl)acetic acid, HCl]
7 | 11 nM | 75 nM | COc1cc(N2CCC(Oc3ccc(N4C[C@H](OC)[C@@H](C)[C@@H]4CC(=O)O)cc3)C(C)C2)c(Cl)cn1 (stereo partly drawn) [Example 119, 2-((2S,3S,4R)-1-(4-(((3,4-trans)-1-(5-Chloro-2-methoxypyridin-4-yl)-3-methylpiperidin-4-yl)oxy)phenyl)-4-methoxy-3-methylpyrrolidin-2-yl)acetic acid, HCl]
8 | 42 nM | 140 nM | CCOc1ccc(F)c(N2CCC(Oc3ccc(N4C[C@H](OC)[C@@H](C)[C@@H]4CC(=O)O)cc3)CC2)c1 [Example 121, 2-((2S,3S,4R)-1-(4-((1-(5-Ethoxy-2-fluorophenyl)piperidin-4-yl)oxy)phenyl)-4-methoxy-3-methylpyrrolidin-2-yl)acetic acid, TFA]
9 | 51 nM | 270 nM | CCOc1ccc(F)c(N2CCC(Oc3ccc(N4C[C@H](c5ccc(OC)nc5)C[C@@H]4CC(=O)O)cc3)CC2)c1 [Example 123, 2-((2R,4S)-1-(4-((1-(5-Ethoxy-2-fluorophenyl)piperidin-4-yl)oxy)phenyl)-4-(6-methoxypyridin-3-yl)pyrrolidin-2-yl)acetic acid, TFA]

Continued, compound first:

Row | Compound | EC50 (human GPR40 [1]) | EC50 (human GPR40 [2])
10 | COc1ccc(F)c(N2CCC(Oc3ccc(N4C[C@H](OC)C[C@@H]4CC(=O)O)cc3)CC2)c1 [Example 4, 2-((2R,4R)-1-(4-((1-(2-Fluoro-5-methoxyphenyl)piperidin-4-yl)oxy)phenyl)-4-methoxypyrrolidin-2-yl)acetic acid, HCl] | 240 nM | 170 nM
11 | COc1ccc(F)c(N2CCC(Cc3ccc(N4C[C@H](C(F)(F)F)C[C@@H]4CC(=O)O)cc3)CC2)c1 [Example 16, 2-((2R,4R)-1-(4-((1-(2-Fluoro-5-methoxyphenyl)piperidin-4-yl)methyl)phenyl)-4-(trifluoromethyl)pyrrolidin-2-yl)acetic acid, HCl] | 73 nM | 530 nM
12 | COc1ccc(F)c(N2CCC(Oc3ccc(N4C[C@H](OC(C)C)C[C@@H]4CC(=O)O)cc3)C(C)C2)c1 (stereo partly drawn) [Example 38, 2-((2R,4R)-1-(4-(((3,4-trans)-1-(2-Fluoro-5-methoxyphenyl)-3-methylpiperidin-4-yl)oxy)phenyl)-4-isopropoxypyrrolidin-2-yl)acetic acid, TFA] | 73 nM | 69 nM
13 | CCOc1ccc(F)c(N2CCC(Oc3ccc(N4CC(C)(OC)C[C@@H]4CC(=O)O)cc3)C(C)C2)c1 (stereo partly drawn) [Example 47, 2-((2R)-1-(4-(((3,4-trans)-1-(5-Ethoxy-2-fluorophenyl)-3-methylpiperidin-4-yl)oxy)phenyl)-4-methoxy-4-methylpyrrolidin-2-yl)acetic acid, HCl] | 18 nM | 170 nM
14 | COc1ccc(C)c(N2CCC(Oc3ccc(N4C[C@H](OC)C[C@@H]4CC(=O)O)cc3)CC2)c1 [Example 57, 2-((2R,4R)-4-Methoxy-1-(4-((1-(5-methoxy-2-methylphenyl)piperidin-4-yl)oxy)phenyl)pyrrolidin-2-yl)acetic acid, TFA] | 83 nM | 160 nM
15 | COc1ccc(C2CC2)c(N2CCC(Oc3ccc(N4C[C@H](OC)C[C@@H]4CC(=O)O)cc3)CC2)c1 [Example 59, 2-((2R,4R)-1-(4-(1-(2-Cyclopropyl-5-methoxyphenyl)piperidin-4-yloxy)phenyl)-4-methoxypyrrolidin-2-yl)acetic acid, TFA] | 38 nM | 290 nM
16 | COc1ccc(C2CCCC2)c(N2CCC(Oc3ccc(N4C[C@H](OC)C[C@@H]4CC(=O)O)cc3)CC2)c1 [Example 61, 2-((2R,4R)-1-(4-(1-(2-Cyclopentyl-5-methoxyphenyl)piperidin-4-yloxy)phenyl)-4-methoxypyrrolidin-2-yl)acetic acid] | 16 nM | 120 nM
17 | COc1ccc(CCC(C)(C)C)c(N2CCC(Oc3ccc(N4C[C@H](OC)C[C@@H]4CC(=O)O)cc3)CC2)c1 [Example 62, 2-((2R,4R)-1-(4-(1-(2-(3,3-Dimethylbutyl)-5-methoxyphenyl)piperidin-4-yloxy)phenyl)-4-methoxypyrrolidin-2-yl)acetic acid] | 13 nM | 89 nM
18 | CCOc1ccc(F)c(N2CCC(Oc3ccc(N4C[C@H](C(F)(F)F)C[C@@H]4CC(=O)O)cc3)CC2)c1 [Example 85, 2-((2R,4R)-1-(4-((1-(5-Ethoxy-2-fluorophenyl)piperidin-4-yl)oxy)phenyl)-4-(trifluoromethyl)pyrrolidin-2-yl)acetic acid] | 70 nM | 320 nM
19 | COc1cc(N2CCC(Oc3ccc(N4C[C@H](OC)[C@@H](C)[C@@H]4CC(=O)O)cn3)C(C)C2)c(Cl)cn1 (stereo partly drawn) [Example 91, 2-((2S,3S,4R)-1-(6-(((3,4-trans)-1-(5-Chloro-2-methoxypyridin-4-yl)-3-methylpiperidin-4-yl)oxy)pyridin-3-yl)-4-methoxy-3-methylpyrrolidin-2-yl)acetic acid, HCl] | 18 nM | 190 nM
